Key:
human Grb2 SH2 domain = biological target: T1, human Grb2 SH2 domain (Homo sapiens, UniProt P62993); experiment: SH2 domain / pY peptide binding assay (ELISA-based, 96 well plate), Grb2 SH2; details: for Ki: Ki calculated from IC50 by the expanded equation, Table II; for IC50: cloned human SH2 domain fusion protein, 0.1 uM biotinylated pY peptide, Table I
T1 construct: SH2 domain of human Grb2 (amino acids 58-159); made in house; host or cells: E. coli (pGEX-2T)
Procedure: (§1) The inhibitory activity of compounds at the different human SH2 domains was determined in vitro using SH2 domains expressed as fusion proteins in E. coli. The SH2 domains used herein were the human forms of the src SH2 domain, Grb2 SH2 domain, lck SH2 domain, fyn SH2 domain, SH-PTP2 SH2 domain, p85 SH2 domain and hcp SH2 domain.
(§2) Fusion proteins having the structure GST-X-SH2 were prepared as described in the GST gene fusion kit system available from Pharmacia (New Jersey). GST is the tagging sequence glutathione s-transferase epitope (SEQ ID NO: 8) for fyn, Grb2 and SH-PTP2 and is the tagging sequence glutathione s-transferase epitope (SEQ ID NO: 9) for p85. SH2 refers to the SH2 domains of fyn, Grb2, p85 and SH-PTP2 which were expressed and purified using glutathione Sepharose 4B (Pharmacia) according to "Current Protocols in Molecular Biology", ed. FM Ausubel et al., pub. John Wiley and Sons, Inc., (1995), p 16.7.1. X is an appropriate linker, preferably of 6 to 21 base pairs, used to keep the SH2 construct in frame and complement cloning. As such, the sequence of X is not critical. One skilled in the art can readily construct the appropriate linker. The DNA sequence encoding each GST-X-SH2 fusion protein was designed such that the indicated restriction sites (BamH1 and EcoRI) flank the SH2 region. The vector used in the instant experiments was the E. coli expression vector pGEX-2T (Pharmacia) for fyn, Grb2 and SH-PTP2, and pGEX-3X (Pharmacia) for p85. Each of these vectors result in SH2 constructs having additional C-terminal amino acids as described below.
Human Grb2 SH2 domain: The sequence encoding the SH2 domain of human Grb2 (amino acids 58-159) (Lowenstein, E. et al., Cell 70, 431-442 (1992)) was cloned into the BamHI and EcoRI sites of the expression vector pGEX-2T. The SH2 domain including the additional C-terminal amino acids isoleucine-histidine-arginine-aspartate (SEQ ID NO: 25) was cloned by PCR techniques known to those skilled in the art to yield the expressed fusion protein GST-X-Grb2.
(§3) The binding assays for the SH2 domains and pY peptides were performed in an ELISA-based 96 well plate assay. In Millipore 96 well filter plates, hydrophilic Durapore® (pore size 0.65um Cat. No. MADVN6550), was added 2 ul (50% suspension) of Protein-G Sepharose (available from Pharmacia of N.J. Cat. No. 17-0618-01) and either 2 ul of 2 mg/ml of MAB178. (for gp120/SH2 domain fusion proteins src, lck and hcp) or 0.25 ul of anti-GST polyclonal antisera (available from Pharmacia of N.J.) (for GST/SH2 domain fusion proteins fyn, Grb2, p85 and SH-PTP2). 10 pmol of the subject SH2 domain fusion protein were added to their respective wells. The volume was brought to 100 ul with TBS-T (tris buffered saline plus 0.05% tween-20), incubated and shaken at room trmperature for 1 hr. then washed 1x with TBS-T (4°C). 90 ul of TBS-T were then added to each well. Specific pY biotinylated peptides were diluted to a concentration of 1.0 uM in TBS-T (these peptides can be obtained from Bachem Bioscience of Pennsylvania, Genosys Biotechnologies of Texas and California Peptide Research of California). 10 ul was aliquoted per well to yield a final concentration of 0.1 uM (approx, the Kd for each SH2 domain/peptide pair) and a final volume of 100 ul. The assay plates were incubated until equilibrium binding was attained (3 hr at 4°C with shaking). The assay plates were washed 2 X per well TBS-T (4°C), then 100 ul of SABC (Strepavidin biotinylated horseradish peroxidase complex, available from the Zymed corporation of California cat. no. 93-0043, 1 drop reagent A (streptavidin) and 1 drop of reagent B (AH-biotin conjugated-horseradish peroxidase) per 10 ml of TBS-T, incubated at 37°C for 30 minutes, then cooled to 4°C) was added per well, then incubated at 4°C for 30-60 minutes. The plates were then washed 4 X with TBS-T (4°C) (250 ul/well)/wash). […]

human p85 SH2 domain = biological target: T2, human p85 SH2 domain (Homo sapiens, UniProt P27986); experiment: SH2 domain / pY peptide binding assay (ELISA-based, 96 well plate), p85 SH2; details: for Ki: Ki calculated from IC50 by the expanded equation, Table II; for IC50: cloned human SH2 domain fusion protein, 0.1 uM biotinylated pY peptide, Table I
T2 construct: SH2 domain of human p85 (amino acids 321-440); made in house; host or cells: E. coli (pGEX-3X)
T2 sequence (P27986 321-440): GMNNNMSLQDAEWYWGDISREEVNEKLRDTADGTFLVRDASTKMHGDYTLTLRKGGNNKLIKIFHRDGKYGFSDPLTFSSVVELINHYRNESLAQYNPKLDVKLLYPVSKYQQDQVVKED
Procedure: as §1, §2
Human p85 SH2 domain: The sequence encoding the SH2 domain of human p85 (amino acids 321-440) (Skolnik, E. et al., Cell 65, 83-90 (1991)) was cloned into the BamHI and EcoRI sites of the expression vector pGEX-3X. The SH2 domain including the additional C-terminal amino acids asparagine-serine-serine (SEQ ID NO: 11)was cloned by PCR techniques known to those skilled in the art to yield the expressed fusion protein GST-X-p85.
as §3, with “ul/well)/wash). 100 ul of 1 mg/ml OPD (o-phenyldiamine, Sigma Chemical Corporation, St. Louis Missouri) in Citrate Buffer was added per well.” for “ul/well)/wash).”

T1 sequence (P62993 58-159): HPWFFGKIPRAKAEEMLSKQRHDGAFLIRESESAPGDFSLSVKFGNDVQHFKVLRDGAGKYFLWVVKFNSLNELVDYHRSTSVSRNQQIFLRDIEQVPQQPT

For “4-acetamido-benzamido-trans-4-methyl-cyclohexyl-N-1-(amino-R-2-(methoxy methyl)-pyrrolidine) carboxamide [Compound 8]”, the Ki (human Grb2 SH2 domain) was 330 µM, the IC50 (human Grb2 SH2 domain) was > 300 µM and the Ki (human p85 SH2 domain) was > 1000 µM. For the same compound, the IC50 (human p85 SH2 domain) was > 300 µM.

`Cc1nnc(SCC2=C(C(=O)O)N3C(=O)[C@@H](NC(=O)C(N)c4ccc(C(=O)O)cc4)[C@H]3SC2)s1` (stereo partly drawn) [Compound 1, 7-[D,L-α-Amino-α-(4-carboxyphenyl)acetamido]-3-[2-(5-methyl-1,3,4-thiadiazolyl)thiomethyl]Δ^3-cephem-4-carboxylic Acid] was tested, and the Ki (human Grb2 SH2 domain) was > 1000 µM, the IC50 (human Grb2 SH2 domain) was > 300 µM and the Ki (human p85 SH2 domain) was > 1000 µM. For the same compound, the IC50 (human p85 SH2 domain) was > 300 µM.

For `N[C@@H](Cc1cc(Br)c(Oc2ccc(O)c(Cc3ccc(O)nn3)c2)c(Br)c1)C(=O)O` [Compound 2, L-3,5-Dibromo-3'-(6-oxo-3(1H)-pyridazinylmethyl)-thyronine], the Ki (human Grb2 SH2 domain) was > 1000 µM, the IC50 (human Grb2 SH2 domain) was > 300 µM and the Ki (human p85 SH2 domain) was > 1000 µM. The IC50 (human p85 SH2 domain) was > 300 µM.

For `Cc1nc2sc3c(c2c2[nH][nH]c(=O)c12)CCC1(C3)OCCO1` [Compound 3, 8,8-Ethylenedioxy-2,3,7,8,9,10-hexahydro-4-methyl-1H-benzo[b]thieno[2,3-b]pyrazolo[3,4-d]pyridin-3-one], the Ki (human Grb2 SH2 domain) was > 1000 µM, the IC50 (human Grb2 SH2 domain) was > 300 µM and the Ki (human p85 SH2 domain) was > 1000 µM. The IC50 (human p85 SH2 domain) was > 300 µM.

`Cc1ccc(C(=O)c2ccc(C(=O)c3ccc(CC=O)cc3)cc2)cc1` [Compound 4, 4-[4-(4-Methylbenzoyl)benzoyl]phenylacetaldehyde] was tested, and the Ki (human Grb2 SH2 domain) was > 1000 µM, the IC50 (human Grb2 SH2 domain) was > 300 µM and the Ki (human p85 SH2 domain) was > 1000 µM. For the same compound, the IC50 (human p85 SH2 domain) was > 300 µM.

With `Cc1nc2sc3c(c2c2c1c(=O)[nH]n2C)CCC1(C3)OCCO1` [Compound 5, 1,4-Dimethyl-8,8-ethylenedioxy-2,3,7,8,9,10-hexahydro-1H-benzo[b]thieno[2,3-b]pyrazolo[3,4-d]pyridin-3-one] the Ki (human Grb2 SH2 domain) was > 1000 µM, the IC50 (human Grb2 SH2 domain) was > 300 µM and the Ki (human p85 SH2 domain) was > 1000 µM. For the same compound, the IC50 (human p85 SH2 domain) was > 300 µM.

For `CCCCCCNC(=O)[C@H]1CC[C@H](CNC(=O)c2ccc([N+](=O)[O-])cc2)CC1` [Compound 7, 4-nitro-benzamido-trans-4-methyl-cyclohexyl-N-hexyl carboxamide], the Ki (human Grb2 SH2 domain) was > 1000 µM, the IC50 (human Grb2 SH2 domain) was > 300 µM and the Ki (human p85 SH2 domain) was > 1000 µM. For the same compound, the IC50 (human p85 SH2 domain) was > 300 µM.

`CCCNC(=O)[C@H]1CC[C@H](CNC(=O)/C=C/c2ccc(C=O)cc2)CC1` [Compound 9, 4-formyl-E-cinnamido-trans-4-methyl-cyclohexyl-N-(propyl) carboxamide] was tested, and the Ki (human Grb2 SH2 domain) was > 1000 µM, the IC50 (human Grb2 SH2 domain) was > 300 µM and the Ki (human p85 SH2 domain) was > 1000 µM. For the same compound, the IC50 (human p85 SH2 domain) was > 300 µM.

In the case of `Cc1nc2sc3c(c2c2[nH][nH]c(=O)c12)CCCC3` [Compound 10, 2,3,7,8,9,10-Hexahydro-4-methyl-1H-benzo[b]thieno[2,3-b]pyrazolo[3,4-d]pyridin-3-one], the Ki (human Grb2 SH2 domain) is reported as > 1000 µM, the IC50 (human Grb2 SH2 domain) is reported as > 300 µM and the Ki (human p85 SH2 domain) is reported as > 1000 µM. The IC50 (human p85 SH2 domain) was > 300 µM.
